In patent US7709471B2, “Compounds” (AstraZeneca AB, priority 2006, dated 2010):

Assays:
recombinant Plk1 = recombinant Plk1 (Homo sapiens, UniProt P53350); assay: In Vitro Plk1 Enzyme Assay (SPA, GST-Cdc25C phosphorylation); assay type: biochemical; conditions: ATP 64 nM, 90 minutes, read-out: IC50 (Plk1 enzyme inhibition)
[1] = test system: human colon tumour cell line HT29; assay: Cellular Assay (phosphohistone H3 Ser10 mitotic marker, HT29); assay type: cell-based; conditions: HT-29, 24 h, HT29 cells, read-out: IC50 (cellular assay, phosphohistone H3)

Chain of recombinant Plk1 (P53350 whole entry): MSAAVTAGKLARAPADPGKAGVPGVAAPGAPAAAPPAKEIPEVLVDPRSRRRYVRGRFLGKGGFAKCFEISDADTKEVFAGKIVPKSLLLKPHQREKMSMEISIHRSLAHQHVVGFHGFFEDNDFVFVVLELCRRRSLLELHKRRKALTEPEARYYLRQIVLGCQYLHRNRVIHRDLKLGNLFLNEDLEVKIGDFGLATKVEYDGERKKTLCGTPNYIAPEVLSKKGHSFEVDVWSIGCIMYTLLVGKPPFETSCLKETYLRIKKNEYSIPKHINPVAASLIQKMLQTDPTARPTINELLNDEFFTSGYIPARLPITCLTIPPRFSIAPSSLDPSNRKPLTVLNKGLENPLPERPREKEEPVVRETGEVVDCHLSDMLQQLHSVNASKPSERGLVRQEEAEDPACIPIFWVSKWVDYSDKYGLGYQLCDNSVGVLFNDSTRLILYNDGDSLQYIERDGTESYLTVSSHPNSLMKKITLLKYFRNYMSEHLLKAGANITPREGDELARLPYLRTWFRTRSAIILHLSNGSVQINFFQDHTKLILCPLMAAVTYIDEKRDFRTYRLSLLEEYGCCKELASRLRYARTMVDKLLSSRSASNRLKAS

SMILES | IC50 (recombinant Plk1) [nM] | IC50 [1] [nM]
CC(C)N1CCC(=O)N(C)c2cnc(Nc3ccc(C(=O)NCCN4CCOCC4)cc3)nc21 [Example 218, 4-[(2-methyl-3-oxo-6-propan-2-yl-2,6,8,10-tetrazabicyclo[5.4.0]undeca-7,9,11-trien-9-yl)amino]-N-(2-morpholin-4-ylethyl)benzamide] | < 300 | < 30000
COc1ccc(CCNC(C)=O)cc1Nc1ncc2c(n1)N(C1CCCC1)CCC(=O)N2C [Example 138, N-[2-[3-[(6-cyclopentyl-2-methyl-3-oxo-2,6,8,10-tetrazabicyclo[5.4.0]undeca-8,10,12-trien-9-yl)amino]-4-methoxy-phenyl]ethyl]acetamide] | < 1000 | < 30000
COc1cc(C(=O)NC2CC3CCC(C2)N3C)ccc1Nc1ncc2c(n1)N(C1CCCC1)CCC(=O)N2C [Example 71, 4-[(6-cyclopentyl-2-methyl-3-oxo-2,6,8,10-tetrazabicyclo[5.4.0]undeca-8,10,12-trien-9-yl)amino]-3-methoxy-N-[(1S,5R)-8-methyl-8-azabicyclo[3.2.1]oct-3-yl]benzamide] | < 300 | < 300
CCN(CC)CCNC(=O)c1ccc(Nc2ncc3c(n2)N(C2CCCC2)CCC(=O)N3C)c(OC)c1 [Example 18, 4-[(6-cyclopentyl-2-methyl-3-oxo-2,6,8,10-tetrazabicyclo[5.4.0]undeca-8,10,12-trien-9-yl)amino]-N-(2-diethylaminoethyl)-3-methoxy-benzamide] | < 300 | < 300
COc1cc(C(=O)NC2CCN(C)CC2)c(Cl)cc1Nc1ncc2c(n1)N(C1CCCC1)CCC(=O)N2C [Example 320, 2-chloro-4-[(2-cyclopentyl-6-methyl-5-oxo-2,6,9,11-tetrazabicyclo[5.4.0]undeca-7,9,11-trien-10-yl)amino]-5-methoxy-N-(1-methyl-4-piperidyl)benzamide] | < 300 | < 300
CN(C)CCOc1ccc(Nc2ncc3c(n2)N(C2CCCC2)CCC(=O)N3C)cc1 [Example 118, 6-cyclopentyl-9-[[4-(2-dimethylaminoethoxy)phenyl]amino]-2-methyl-2,6,8,10-tetrazabicyclo[5.4.0]undeca-8,10,12-trien-3-one] | < 100000 | –
CN1C(=O)CCN(C2CCCC2)c2nc(Nc3ccccc3Cc3ccccc3)ncc21 [Example 157, 9-[(2-benzylphenyl)amino]-6-cyclopentyl-2-methyl-2,6,8,10-tetrazabicyclo[5.4.0]undeca-8,10,12-trien-3-one] | < 100000 | –
COc1cc(C(=O)NCCN2CCCCC2)ccc1Nc1ncc2c(n1)N(C1CCCC1)CCC(=O)N2C [Example 12, 4-[(6-cyclopentyl-2-methyl-3-oxo-2,6,8,10-tetrazabicyclo[5.4.0]undeca-8,10,12-trien-9-yl)amino]-3-methoxy-N-[2-(1-piperidyl)ethyl]benzamide] | < 1000 | –
CCOc1ccccc1Nc1ncc2c(n1)N(C1CCCC1)CCC(=O)N2C [Example 140, 6-cyclopentyl-9-[(2-ethoxyphenyl)amino]-2-methyl-2,6,8,10-tetrazabicyclo[5.4.0]undeca-8,10,12-trien-3-one] | < 100000 | –
COc1cc(C(=O)NC2CCCCC2)ccc1Nc1ncc2c(n1)N(CCN1CCCCC1)CCC(=O)N2C [Example 276, N-cyclohexyl-3-methoxy-4-[[6-methyl-5-oxo-2-[2-(1-piperidyl)ethyl]-2,6,9,11-tetrazabicyclo[5.4.0]undeca-7,9,11-trien-10-yl]amino]benzamide] | < 100000 | –
CN1C(=O)CCN(C2CCCC2)c2nc(Nc3cccc(S(C)(=O)=O)c3)ncc21 [Example 172, 6-cyclopentyl-2-methyl-9-[(3-methylsulfonylphenyl)amino]-2,6,8,10-tetrazabicyclo[5.4.0]undeca-8,10,12-trien-3-one] | < 100000 | –
CCCCc1ccccc1Nc1ncc2c(n1)N(C1CCCC1)CCC(=O)N2C [Example 151, 9-[(2-butylphenyl)amino]-6-cyclopentyl-2-methyl-2,6,8,10-tetrazabicyclo[5.4.0]undeca-8,10,12-trien-3-one] | < 100000 | –
COc1cc(C(=O)NCCN2CCOCC2)ccc1Nc1ncc2c(n1)N(C1CCCC1)CCC(=O)N2 [Example 250, 4-[(6-cyclopentyl-3-oxo-2,6,8,10-tetrazabicyclo[5.4.0]undeca-8,10,12-trien-9-yl)amino]-3-methoxy-N-(2-morpholin-4-ylethyl)benzamide] | < 1000 | –
COc1ccc(Nc2ncc3c(n2)N(C2CCCC2)CCC(=O)N3C)cc1 [Example 120, 6-cyclopentyl-9-[(4-methoxyphenyl)amino]-2-methyl-2,6,8,10-tetrazabicyclo[5.4.0]undeca-8,10,12-trien-3-one] | < 100000 | –
CN(C)CC(C)(C)CNC(=O)c1ccc(Nc2ncc3c(n2)N(c2ccccc2)CCC(=O)N3C)c(Cl)c1 [Example 225, 3-chloro-N-(3-dimethylamino-2,2-dimethyl-propyl)-4-[(2-methyl-3-oxo-6-phenyl-2,6,8,10-tetrazabicyclo[5.4.0]undeca-8,10,12-trien-9-yl)amino]benzamide] | < 1000 | –
CN1C(=O)CCN(C2CCCC2)c2nc(Nc3ccccc3Oc3ccccc3)ncc21 [Example 146, 6-cyclopentyl-2-methyl-9-[(2-phenoxyphenyl)amino]-2,6,8,10-tetrazabicyclo[5.4.0]undeca-8,10,12-trien-3-one] | < 100000 | –
COc1cc(C(=O)NC2CCN(C)CC2)ccc1Nc1ncc2c(n1)N(c1ccccc1)CCC(=O)N2 [Example 251, 3-methoxy-N-(1-methyl-4-piperidyl)-4-[(3-oxo-6-phenyl-2,6,8,10-tetrazabicyclo[5.4.0]undeca-8,10,12-trien-9-yl)amino]benzamide] | < 100000 | –

Now from value to compound:

IC50 (recombinant Plk1) [nM] | IC50 [1] [nM] | SMILES
< 1000 | < 300 | COc1cc(C(=O)NC2CCC2)ccc1Nc1ncc2c(n1)N(C1CCCC1)CCC(=O)N2C [Example 98, N-cyclobutyl-4-[(6-cyclopentyl-2-methyl-3-oxo-2,6,8,10-tetrazabicyclo[5.4.0]undeca-8,10,12-trien-9-yl)amino]-3-methoxy-benzamide]
< 300 | < 300 | COc1cc(C(=O)NC2CCNC2)ccc1Nc1ncc2c(n1)N(C1CCCC1)CCC(=O)N2C (stereo not drawn) [Example 45, 4-[(6-cyclopentyl-2-methyl-3-oxo-2,6,8,10-tetrazabicyclo[5.4.0]undeca-8,10,12-trien-9-yl)amino]-3-methoxy-N-pyrrolidin-3-yl-benzamide]
< 300 | < 1000 | COc1cc(C(=O)NC[C@@H]2CCNC2)ccc1Nc1ncc2c(n1)N(C1CCCC1)CCC(=O)N2C [Example 47, 4-[(6-cyclopentyl-2-methyl-3-oxo-2,6,8,10-tetrazabicyclo[5.4.0]undeca-8,10,12-trien-9-yl)amino]-3-methoxy-N-[[(3R)-pyrrolidin-3-yl]methyl]benzamide]
< 100000 | < 30000 | CN(C)CC(C)(C)CNC(=O)c1ccc(Nc2ncc3c(n2)N(C2CCCC2)CCC(=O)N3)cc1 [Example 253, 4-[(6-cyclopentyl-3-oxo-2,6,8,10-tetrazabicyclo[5.4.0]undeca-8,10,12-trien-9-yl)amino]-N-(3-dimethylamino-2,2-dimethyl-propyl)benzamide]
< 1000 | < 300 | COc1cc(C(=O)N[C@@H]2CCN(C(=O)OC(C)(C)C)C2)ccc1Nc1ncc2c(n1)N(C1CCCC1)CCC(=O)N2C [Example 52, tert-butyl (3R)-3-[[4-[(6-cyclopentyl-2-methyl-3-oxo-2,6,8,10-tetrazabicyclo[5.4.0]undeca-8,10,12-trien-9-yl)amino]-3-methoxy-benzoyl]amino]pyrrolidine-1-carboxylate]
< 1000 | – | CC(C)c1ccccc1Nc1ncc2c(n1)N(C1CCCC1)CCC(=O)N2C [Example 150, 6-cyclopentyl-2-methyl-9-[(2-propan-2-ylphenyl)amino]-2,6,8,10-tetrazabicyclo[5.4.0]undeca-8,10,12-trien-3-one]
< 100000 | – | CN1C(=O)CCN(C2CCCC2)c2nc(Nc3cccc(CNC(=O)OC(C)(C)C)c3)ncc21 [Example 136, tert-butyl N-[[3-[(6-cyclopentyl-2-methyl-3-oxo-2,6,8,10-tetrazabicyclo[5.4.0]undeca-8,10,12-trien-9-yl)amino]phenyl]methyl]carbamate]
< 300 | – | COc1cc(C(=O)N[C@@H]2CC[C@H](C(=O)O)C2)ccc1Nc1ncc2c(n1)N(C1CCCC1)CCC(=O)N2C [Example 87, (1S,3R)-3-[[4-[(6-cyclopentyl-2-methyl-3-oxo-2,6,8,10-tetrazabicyclo[5.4.0]undeca-8,10,12-trien-9-yl)amino]-3-methoxy-benzoyl]amino]cyclopentane-1-carboxylic acid]
< 300 | – | COc1cc(C(=O)NC2CCN(C)CC2)ccc1Nc1ncc2c(n1)N(CC(C)C)CCC(=O)N2C [Example 211, 3-methoxy-4-[[2-methyl-6-(2-methylpropyl)-3-oxo-2,6,8,10-tetrazabicyclo[5.4.0]undeca-7,9,11-trien-9-yl]amino]-N-(1-methyl-4-piperidyl)benzamide]
< 100000 | – | C#Cc1cccc(Nc2ncc3c(n2)N(C2CCCC2)CCC(=O)N3C)c1 [Example 168, 6-cyclopentyl-9-[(3-ethynylphenyl)amino]-2-methyl-2,6,8,10-tetrazabicyclo[5.4.0]undeca-8,10,12-trien-3-one]
< 100000 | – | CN1C(=O)CCN(C2CCCC2)c2nc(Nc3ccccc3CN3CCOCC3)ncc21 [Example 160, 6-cyclopentyl-2-methyl-9-[[2-(morpholin-4-ylmethyl)phenyl]amino]-2,6,8,10-tetrazabicyclo[5.4.0]undeca-8,10,12-trien-3-one]
< 100000 | – | O=C1CCN(c2ccccc2)c2nc(Nc3ccc(C(=O)NCCN4CCOCC4)cc3Cl)ncc2N1 [Example 247, 3-chloro-N-(2-morpholin-4-ylethyl)-4-[(3-oxo-6-phenyl-2,6,8,10-tetrazabicyclo[5.4.0]undeca-7,9,11-trien-9-yl)amino]benzamide]
